{
  "source": "patent US9193983B2",
  "about": "“Assays for mutagenesis detection” (The Regents of the University of California, priority 2007, dated 2015)",
  "key": {"[1]": {"assay": "well-based DEL assay (MTS colorimetric, 96/384-well): genotoxicity and cytotoxicity", "details": "Saccharomyces cerevisiae; for viability: Cytotoxicity (% survival)", "from_the_text": "(§1) The RS112 yeast DEL assay tester strain of Saccharomyces cerevisiae contains a plasmid with an internal fragment of the HIS3 gene integrated at the genomic HIS3 locus, yielding an integrative disruption of the HIS3 gene. This disruption results in two copies of the HIS3 gene, each copy having one terminal deletion. Recombination between the two his3 deletion alleles results in reversion to HIS3^+ and growth in the absence of histidine. This recombination event leads to a 6 kb DNA deletion comprising the integrated plasmid leading to deletion (DEL) events. The assay utilizing DEL events involves overnight growth of a single colony of the RS112 strain and subsequent subculture with the presence or absence of the chemical being tested for 17 hours at 30° C. under constant shaking. Yeast are then plated onto SC medium to determine the number of survivors (individual colonies are counted) and onto SC-HIS medium to score for DEL events. The traditional DEL assay is very powerful if one is testing a limited number of chemicals but becomes impractical for screening large numbers of chemicals and chemical libraries.\n(§2) For 384-well plate format, 1 μl of yeast (˜100,000 cells) was pipetted into 8 microplate wells for each compound, four of which containing 70 μl SC media and four containing 70 μl SC-HIS media; each well was supplemented with 14 μl of MTS and 5 μl of compound. For 96-well plate format, the above was consistent except media, MTS, and compound volumes were 100 μl, 20 μl, and 7 μl, respectively. Control wells were treated with water in lieu of compound. The outermost columns of the 96-well plate and outer two columns of each 384-well plate were excluded from experimentation lest edge evaporative effects alter the data. Plates were incubated at 30° C. at normal atmosphere during which yeast were grown in the presence of the tested compound and 490 nm absorbance was measured 10-18 hr later using a Molecular Devices SpectraMax M5 microplate reader (Sunnyvale, Calif.).\n(§3) Survival for a given compound treatment was quantified by averaging the absorbance across the four treated wells in SC media and dividing that by the average absorbance of control wells. DEL induction was quantified by dividing the absorbance of each SC-HIS well by the corresponding paired SC well. Thus for each compound done in quadruplicate, each plate contains a set of 4 different measurements of DEL induction. For each compound, ratio of the average DEL induction in treated versus control cultures was taken as the fold-increase in DEL events (HIS^+ growth). A Student's t-test was performed on the 4 measurements of DEL induction and the same measurements recorded from control wells to determine significance of the fold-increase. It should be noted that this value of fold-increase is analyzed statistically for significance and not absolute; thus two different chemicals may have the same fold-increase but varying levels of significance. In plots and tables, data from a single experiment performed in quadruplicate is presented; all experiments were repeated independently in at least 3 separate experiments in both 96 and 384-well plate formats."}, "[2]": {"system": "S. cerevisiae strain RS112", "assay": "well-based DEL assay (MTS colorimetric, 96/384-well): genotoxicity and cytotoxicity", "details": "for DNA deletion potential (DEL events) of solvent alone: compared to control treated yeast", "from_the_text": "as §1, §2, §3"}, "[3]": {"details": "S. cerevisiae strain RS112 (diploid yeast cells)"}},
  "note": "Where two headings read alike, the source gives them in different places. Numbered stars: 1 amine (or outer) side, 2 acyl side, 3 side chain; on linkers, the order of the positions; unused ones are H or OH. Bridge positions count the residues as written; N and C are the ends. Square brackets hold non-standard residues; d marks the D form. Peptide text beside a SMILES is read from it. I, II: the chains in the order shown. Actinocin(9to1) = Cc1c2oc3c(C)ccc(C(=O)[*:1])c3nc-2c(C(=O)[*:2])c(N)c1=O; NMeV = CN[C@H](C(=O)O)C(C)C; Sar = CNCC(=O)O",
  "data": [
    {"compound": "COS(C)(=O)=O", "note": "[MMS, methylmethane sulfonate]", "values": [
      {"measurement": "viability at 10 nM", "setting": "[1]; [3]", "value": 81.2, "unit": "%"},
      {"measurement": "viability at 100 nM", "setting": "[1]; [3]", "value": 74.8, "unit": "%"},
      {"measurement": "viability at 500 nM", "setting": "[1]; [3]", "value": 38.6, "unit": "%"},
      {"measurement": "viability at 1000 nM", "setting": "[1]; [3]", "value": 20.3, "unit": "%"},
      {"measurement": "Cytotoxicity significance", "setting": "[2]; 10 nM final in well", "value": "*** (*** (p < 0.005))"},
      {"measurement": "DEL (fold increase)", "setting": "[2]; 10 nM final in well", "value": 1.54, "unit": "fold"},
      {"measurement": "DEL significance", "setting": "[2]; 10 nM final in well", "value": "** (** (p < 0.01))"},
      {"measurement": "Cytotoxicity significance", "setting": "[2]; 100 nM final in well", "value": "*** (*** (p < 0.005))"},
      {"measurement": "DEL (fold increase)", "setting": "[2]; 100 nM final in well", "value": 1.68, "unit": "fold"},
      {"measurement": "DEL significance", "setting": "[2]; 100 nM final in well", "value": "*** (*** (p < 0.005))"},
      {"measurement": "Cytotoxicity significance", "setting": "[2]; 500 nM final in well", "value": "*** (*** (p < 0.005))"},
      {"measurement": "DEL (fold increase)", "setting": "[2]; 500 nM final in well", "value": 2.16, "unit": "fold"},
      {"measurement": "DEL significance", "setting": "[2]; 500 nM final in well", "value": "*** (*** (p < 0.005))"},
      {"measurement": "Cytotoxicity significance", "setting": "[2]; 1000 nM final in well", "value": "*** (*** (p < 0.005))"},
      {"measurement": "DEL (fold increase)", "setting": "[2]; 1000 nM final in well", "value": 3.09, "unit": "fold"},
      {"measurement": "DEL significance", "setting": "[2]; 1000 nM final in well", "value": "*** (*** (p < 0.005))"},
      {"measurement": "cytotoxicity", "setting": "[2]; each concentration between 10-1000 nM", "value": "increasingly significantly cytotoxic"},
      {"measurement": "DEL fold-increase", "setting": "[2]; lowest dose tested of 10 nM (0.0011 μg/ml)", "value": "significant increase in DEL fold-increase"}
    ]},
    {"compound": "CCOS(C)(=O)=O", "note": "[EMS, ethyl methanesulfonate]", "values": [
      {"measurement": "viability at 2 μg/ml", "setting": "[1]; [3]", "value": 38.2, "unit": "%"},
      {"measurement": "viability at 5 μg/ml", "setting": "[1]; [3]", "value": 8.36, "unit": "%"},
      {"measurement": "viability at 10 μg/ml", "setting": "[1]; [3]", "value": 6.7, "unit": "%"},
      {"measurement": "Cytotoxicity significance", "setting": "[2]; 2 μg/ml final in well", "value": "*** (*** (p < 0.005))"},
      {"measurement": "DEL (fold increase)", "setting": "[2]; 2 μg/ml final in well", "value": 1.59, "unit": "fold"},
      {"measurement": "DEL significance", "setting": "[2]; 2 μg/ml final in well", "value": "*** (*** (p < 0.005))"},
      {"measurement": "Cytotoxicity significance", "setting": "[2]; 5 μg/ml final in well", "value": "*** (*** (p < 0.005))"},
      {"measurement": "DEL (fold increase)", "setting": "[2]; 5 μg/ml final in well", "value": 3.19, "unit": "fold"},
      {"measurement": "DEL significance", "setting": "[2]; 5 μg/ml final in well", "value": "*** (*** (p < 0.005))"},
      {"measurement": "Cytotoxicity significance", "setting": "[2]; 10 μg/ml final in well", "value": "*** (*** (p < 0.005))"},
      {"measurement": "DEL (fold increase)", "setting": "[2]; 10 μg/ml final in well", "value": 2.65, "unit": "fold"},
      {"measurement": "DEL significance", "setting": "[2]; 10 μg/ml final in well", "value": "*** (*** (p < 0.005))"},
      {"measurement": "growth in +13 media (cytotoxicity)", "setting": "[2]; 2, 5 and 10 μg/ml", "value": "diminished growth in +13 media"},
      {"measurement": "growth in −HIS media (genotoxicity)", "setting": "[2]; 2, 5 and 10 μg/ml", "value": "increased growth in −HIS media"}
    ]},
    {"compound": "C[S+](C)[O-]", "note": "[DMSO, dimethyl sulfoxide]", "values": [
      {"measurement": "DEL (fold increase)", "setting": "[2]; 1% (solvent tested alone)", "value": 0.96, "unit": "fold"},
      {"measurement": "DEL significance", "setting": "[2]; 1% (solvent tested alone)", "value": "ns (ns—not significant (p > 0.05))"},
      {"measurement": "DNA deletion potential (DEL events) of solvent alone", "setting": "[2]", "value": "neither solvents generated any differentiable response"}
    ]},
    {"compound": "Cc1c2oc3c(C)ccc(C(=O)N[C@@H]4C(=O)N[C@H](C(C)C)C(=O)N5CCC[C@H]5C(=O)N(C)CC(=O)N(C)[C@@H](C(C)C)C(=O)O[C@@H]4C)c3nc-2c(C(=O)N[C@@H]2C(=O)N[C@H](C(C)C)C(=O)N3CCC[C@H]3C(=O)N(C)CC(=O)N(C)[C@@H](C(C)C)C(=O)O[C@@H]2C)c(N)c1=O", "note": "[ActD, actinomycin D] (I: T[dV]P[Sar][NMeV] / II: T[dV]P[Sar][NMeV]; ester I:1-I:C, II:1-II:C; linker I:N-II:N via Actinocin(9to1))", "values": [
      {"measurement": "Cytotoxicity significance", "setting": "[2]", "value": "** (key: * (p < 0.05); ** (p < 0.01); *** (p < 0.005); ns—not significant (p > 0.05))"},
      {"measurement": "DEL fold-increase", "setting": "[2]", "value": "significant DEL fold-increase"},
      {"measurement": "cytotoxicity", "setting": "[2]", "value": "slight cytotoxicity"},
      {"measurement": "Cytotoxicity (% survival)", "setting": "[2]; 5 μM final in well", "value": 112.0, "unit": "%"},
      {"measurement": "DEL (fold increase)", "setting": "[2]; 5 μM final in well", "value": 0.89, "unit": "fold"},
      {"measurement": "DEL significance", "setting": "[2]; 5 μM final in well", "value": "ns (ns—not significant (p > 0.05))"},
      {"measurement": "Cytotoxicity (% survival)", "setting": "[2]; 10 μM final in well", "value": 110.2, "unit": "%"},
      {"measurement": "DEL (fold increase)", "setting": "[2]; 10 μM final in well", "value": 0.96, "unit": "fold"},
      {"measurement": "DEL significance", "setting": "[2]; 10 μM final in well", "value": "ns (ns—not significant (p > 0.05))"},
      {"measurement": "Cytotoxicity (% survival)", "setting": "[2]; 20 μM final in well", "value": 86.3, "unit": "%"},
      {"measurement": "DEL (fold increase)", "setting": "[2]; 20 μM final in well", "value": 1.26, "unit": "fold"},
      {"measurement": "DEL significance", "setting": "[2]; 20 μM final in well", "value": "** (** (p < 0.01))"}
    ]},
    {"compound": "CC(C)=O", "note": "[Acetone, acetone]", "values": [
      {"measurement": "DEL (fold increase)", "setting": "[2]; 0.4% (solvent tested alone)", "value": 0.96, "unit": "fold"},
      {"measurement": "DEL significance", "setting": "[2]; 0.4% (solvent tested alone)", "value": "ns (ns—not significant (p > 0.05))"},
      {"measurement": "DNA deletion potential (DEL events) of solvent alone", "setting": "[2]", "value": "neither solvents generated any differentiable response"}
    ]},
    {"compound": "O=[N+]([O-])c1cc[n+]([O-])c2ccccc12", "note": "[4NQO, 4-nitroquinoline-1-oxide]", "values": [
      {"measurement": "viability", "setting": "[1]; 0.08 μg/ml final in well", "value": 20.3, "unit": "%"},
      {"measurement": "viability", "setting": "[1]; 0.2 μg/ml final in well", "value": 11.7, "unit": "%"},
      {"measurement": "viability", "setting": "[1]; 1 μg/ml final in well", "value": 13.5, "unit": "%"}
    ]}
  ]
}
